Assay results taken from patent US20260108505A1, “EYE DROP COMPOSITION COMPRISING NOVEL MOLECULAR ASSOCIATION OF AXITINIB AND METHOD FOR PREPARING THE SAME” (SCAI THERAPEUTICS CO., LTD., priority 2024, published 2026).
Marks after values point to notes of the source that are not given here.

Tests used:
[1] = Solubility of SCAI-Form and API at pH 1 and pH 2; type: physicochemical; conditions: for Dissolution concentration at pH 1: stirred 15 minutes at 5 mg/mL, diluted 10 times with DW, measured value x 10; for Dissolution concentration at pH 1 / Dissolution concentration at pH 2: filtered; for Dissolution concentration at pH 2: stirred 15 minutes at 1 mg/mL
Procedure: Method for measuring solubility at pH 1: Stirred for 15 minutes at a concentration of 5 mg/mL, and then filtered, diluted 10 times with DW, and analyzed. (The value calculated as [measured value×10] is described in the results)
Method for measuring solubility at pH 2: Stirred for 15 minutes at a concentration of 1 mg/mL, and then filtered, and analyzed.

grade 3/4 CNV lesions [2] = test: Laser-induced CNV monkey model, optical coherence tomography (OCT): retinal thickness; type: in vivo, rhesus monkeys; conditions: n = 6 eyes; for Percent change of retinal thickness (Mean±SD): relative to (baseline − before laser induction), Example 15 (0.08%) eye drops
Excerpt: (§1) In this experiment, neovascularization was induced by damaging the choroid of both eyes using a laser in a monkey animal model, and then treated with drugs, and the efficacy is compared and evaluated by performing fundus fluorescein angiography (FFA) and optical coherence tomography (OCT) and measuring the neovascular area and spot number in the damaged area and the retinal lesion thickness.
(§2) Experimental CNV in monkey eyes was induced using a laser photocoagulation system (Vitra 532 nm, Quantel Medical, France).
(§3) Laser parameters: laser wavelength of 532 nm; spot size of 50 μm; energy of 600-800 mW; exposure time of 0.1 s.
(§4) A total of eight rhesus monkeys were used to induce CNV. The animals were anesthetized by intramuscular injection of ketamine hydrochloride (20 mg/kg) and dexmedetomidine hydrochloride (0.03 mg/kg), and then both eyes of each monkey were burned at 8-9 points around the macula, approximately one disc diameter from the macula. Care was taken not to aim the laser at the macula. The force used depended on the morphology of the subretinal bleb indicating a perforation of the Bruch's membrane. If no bled formed, higher energy was used at the next point. Color fundus photography (Retinal Camera TRC-50DX, Topcon Healthcare, Japan) was performed immediately after laser photocoagulation to observe the laser dots. Fundus fluorescein angiography (FFA) examination was performed 12 days after laser induction. Modeling was assessed as successful if there was one or more fluorescence leakage point of grade III and/or grade IV. Animals were enrolled in treatment and randomly divided into two groups based on the total leakage area of grade III and IV laser spots (Tables 10 and 11). The monkeys that were not included were returned to the PRIMED Animal Care Department.
Optical coherence tomography (OCT): Heidelberg Spectralis OCT plus.
(§5) Frequency: a total of 4 times, 1 time before laser photocoagulation, 1 time before administration (−Day 2), 1 time on Day 14 and 1 time on Day 28 after the first administration.
OCT image acquisition protocol: FP and FFA images were taken, and then OCT scans were performed. Efforts were made to maintain uniformly illuminated and well-focused fundus images and high-quality OCT. Once the focus was aligned on the central macula by observation of the monitor screen, the monkey's eyes were identified by applying a high-speed macular scan process. Retinal thickness was automatically measured using software embedded in the Heidelberg OCT by measuring the distance between the internal border membrane and Bruch's membrane. Two membrane lines were found manually. The location with the maximum thickness around the grade III or IV point was selected for measurements. Heidelberg OCT unique has technical characteristics that ensure longitudinal measurements of retinal thickness at the same location.
(§6) Data analysis consisted of total area of fluorescein leakage points at one of the registered photocoagulation points, volume of fluorescein leakage points, and retinal thickness. Animal observations, photography, fundus and slit-lamp examinations were recorded and summarized in a report. The mean and standard deviation of the percent change in the total area of fluorescein leakage spots and the percent change in retinal thickness were calculated. Microsoft Office Excel 2013 and SPSS Statistics 13.0 were used for data processing and statistical analysis.

grade 3/4 CNV lesions [3] = test: Laser-induced CNV monkey model, fundus fluorescein angiography (FFA): leakage area and spot number; type: in vivo, rhesus monkeys; conditions: n = 6 eyes
Excerpt: as §1, §2, §3, §4, §5
FFA image acquisition protocol: The FP images were taken, and then FFA was performed. After intravenous infusion of 10% sodium fluorescein (Alcon Laboratories, USA) at a dose of 0.075 mL/kg, rapid posterior polar photographs of the right eye were taken. The left eye was then used to monitor leakage of fluorescein related to the CNV lesion at serial time points (1, 5, and 10 minutes).
To quantify the area of CNV leakage, the total area of hyperfluorescence per eye was measured in late FFA images using Image J software (version 1.52a, Wayne Rasband National Institutes of Health, USA). Images from the later stage (10 min) were also used to calculate the amount and grade of CNV spots (Table 12).
as §6

[4] = Baseline (after induction, before treatment), group later given Example 15 eye drops
[5] = Day 14, Example 15 (0.08%) eye drops 4 times/day

Dissolution concentration at pH 1 [1] [mg/mL]	Dissolution concentration at pH 2 [1] [mg/mL]	Solubility of SCAI-Form relative to API ([1]; from Table 6, pH 1 and pH 2)	Dissolution concentration at pH 1 ([1]; listed as SCAI-Form) [mg/mL]	Dissolution concentration at pH 2 ([1]; listed as SCAI-Form) [mg/mL]	Compound	Average retinal thickness of grade 3/4 CNV lesions (Mean±SD) (grade 3/4 CNV lesions [2]; [4]) [μm]	Average retinal thickness of grade 3/4 CNV lesions (Mean±SD) (grade 3/4 CNV lesions [2]; [5]) [μm]	Percent change of retinal thickness (Mean±SD) (grade 3/4 CNV lesions [2]; Day 14) [%]	Average retinal thickness of grade 3/4 CNV lesions (Mean±SD) (grade 3/4 CNV lesions [2]; Day 28, Example 15 (0.08%) eye drops 4 times/day, p < 0.01 vs baseline) [μm]	Percent change of retinal thickness (Mean±SD) (grade 3/4 CNV lesions [2]; Day 28, p < 0.01 vs vehicle) [%]	Leakage area of grade 3/4 CNV lesions (Mean±SD) (grade 3/4 CNV lesions [3]; [4]) [mm^2]	Amount of grade 3/4 leakage spots (grade 3/4 CNV lesions [3]; [5])	Leakage area of grade 3/4 CNV lesions (Mean±SD) (grade 3/4 CNV lesions [3]; Day 14, Example 15 (0.08%) ophthalmic solution, 1 drop 50 μL, 4 times/day topical) [mm^2]	Percent change of leakage area (Mean±SD) (grade 3/4 CNV lesions [3]; Day 14 vs baseline, Example 15 (0.08%) eye drops 4 times/day) [%]	Amount of grade 3/4 leakage spots (grade 3/4 CNV lesions [3]; Day 28, Example 15 (0.08%) eye drops 4 times/day)	Leakage area of grade 3/4 CNV lesions (Mean±SD) (grade 3/4 CNV lesions [3]; Day 28, Example 15 (0.08%) ophthalmic solution, 1 drop 50 μL, 4 times/day topical, p < 0.05 vs baseline)	Percent change of leakage area (Mean±SD) (grade 3/4 CNV lesions [3]; Day 28 vs baseline, Example 15 (0.08%) eye drops 4 times/day, p < 0.05 vs vehicle) [%]	Amount of grade 3/4 leakage spots (grade 3/4 CNV lesions [3]; baseline, group later given Example 15 eye drops)
2.661	0.073				CNC(=O)c1ccccc1Sc1ccc2c(/C=C/c3ccccn3)n[nH]c2c1 [API, axitinib]													
		about twice	4.363	0.171	CNC(=O)c1ccccc1Sc1ccc2c(/C=C/c3ccccn3)n[nH]c2c1 [SCAI-005, axitinib]	430 ± 45	406 ± 68	−26.0 ± 26.3	358 ± 40	−61.4 ± 16.0	9.01 ± 2.25	47*	9.65 ± 4.85	4.5 ± 39.1	43*	6.46 ± 3.30* mm^2	−30.2 ± 28.9	53
